For 15 compounds, EC50 and Emax results are on record in patent US20240208992A1, “MACROCYCLES AS CFTR MODULATORS” (Idorsia Pharmaceuticals Ltd, priority 2021, published 2024).

In the test the target is human F508del-CFTR (Homo sapiens, UniProt P13569, DEL508-508). Briefly: F508del-CFTR cell surface expression (corrector activity), DiscoveRx ß-galactosidase complementation chemiluminescence assay in recombinant U2OS cell line.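 On all read-outs here: U2OS cells co-expressing ProLink-tagged F508del-CFTR and a membrane-anchored enzyme acceptor, where more surface CFTR restores β-galactosidase activity measured by chemiluminescence.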 The following applies: U2OS cell line, 16h compound incubation; for EC50: EC50, F508del-CFTR cell surface expression, geomean values; for Emax: U2OS, in relation to the Emax of the corrector lumacaftor (=100%), arithmetic mean values.
Sequence of human F508del-CFTR (P13569 with tags, fused parts or gaps DEL508-508): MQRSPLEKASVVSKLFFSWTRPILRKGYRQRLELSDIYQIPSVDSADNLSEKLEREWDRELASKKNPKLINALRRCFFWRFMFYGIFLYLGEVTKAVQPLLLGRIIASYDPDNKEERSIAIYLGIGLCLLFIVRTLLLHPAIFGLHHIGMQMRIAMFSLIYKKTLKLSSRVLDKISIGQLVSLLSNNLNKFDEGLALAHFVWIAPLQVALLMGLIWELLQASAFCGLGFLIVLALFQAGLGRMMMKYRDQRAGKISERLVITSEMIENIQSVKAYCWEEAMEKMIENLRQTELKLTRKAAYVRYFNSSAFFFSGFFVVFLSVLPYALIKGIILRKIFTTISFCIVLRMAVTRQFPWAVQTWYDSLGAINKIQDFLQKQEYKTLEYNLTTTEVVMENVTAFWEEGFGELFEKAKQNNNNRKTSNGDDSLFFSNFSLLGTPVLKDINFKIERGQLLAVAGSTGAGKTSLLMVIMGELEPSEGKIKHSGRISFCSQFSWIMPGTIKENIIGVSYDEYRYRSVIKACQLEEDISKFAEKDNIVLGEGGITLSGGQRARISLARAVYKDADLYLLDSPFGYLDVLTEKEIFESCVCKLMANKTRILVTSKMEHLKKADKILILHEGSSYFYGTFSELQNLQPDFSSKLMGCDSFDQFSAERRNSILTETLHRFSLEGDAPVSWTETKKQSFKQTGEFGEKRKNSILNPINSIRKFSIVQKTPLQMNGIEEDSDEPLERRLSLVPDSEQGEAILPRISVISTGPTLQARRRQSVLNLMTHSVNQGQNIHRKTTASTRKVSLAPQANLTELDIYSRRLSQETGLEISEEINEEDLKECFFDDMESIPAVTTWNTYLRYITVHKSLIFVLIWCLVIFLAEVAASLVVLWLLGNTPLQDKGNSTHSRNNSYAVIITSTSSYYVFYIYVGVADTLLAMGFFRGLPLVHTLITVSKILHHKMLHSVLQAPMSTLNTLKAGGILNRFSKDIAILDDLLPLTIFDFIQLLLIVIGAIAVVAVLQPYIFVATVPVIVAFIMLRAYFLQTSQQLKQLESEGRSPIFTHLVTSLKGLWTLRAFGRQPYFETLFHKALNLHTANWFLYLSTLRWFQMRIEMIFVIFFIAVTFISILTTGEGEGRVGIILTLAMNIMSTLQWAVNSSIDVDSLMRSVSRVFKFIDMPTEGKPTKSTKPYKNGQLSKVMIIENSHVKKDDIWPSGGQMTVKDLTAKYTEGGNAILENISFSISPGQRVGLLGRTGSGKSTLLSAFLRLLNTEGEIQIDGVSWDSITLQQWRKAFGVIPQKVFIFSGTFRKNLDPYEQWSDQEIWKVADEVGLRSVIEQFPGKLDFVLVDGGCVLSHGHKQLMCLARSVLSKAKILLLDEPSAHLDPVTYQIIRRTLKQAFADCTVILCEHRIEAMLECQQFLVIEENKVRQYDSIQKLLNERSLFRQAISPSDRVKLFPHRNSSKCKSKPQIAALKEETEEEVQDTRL

`CC(C)C[C@H]1C(=O)N2CCOC[C@@H]2C(=O)N[C@H](Cc2ccccc2)COc2ccc3ccccc3c2C(=O)N[C@H](C(=O)NCCc2ccc(C#N)cc2)CC(=O)N1C` [Example 40, (4aR,7R,18S,22S)-7-benzyl-N-(4-cyanophenethyl)-22-isobutyl-21-methyl-5,16,20,23-tetraoxo-1,2,4,4a,5,6,7,8,16,17,18,19,20,21,22,23-hexadecahydronaphtho[1,2-p][1,4]oxazino[3,4-f][1]oxa[4,7,10,14]tetraazacycloheptadecine-18-carboxamide]: the concentration for a half-maximal effect (EC50) (usually the midpoint of the concentration-response curve) is 897 nM and the maximum response (Emax) (commonly the greatest response seen or fitted, relative to the assay's reference) was 147%.
In the case of `CC(C)C[C@H]1C(=O)N2CCOC[C@@H]2C(=O)N[C@H](Cc2ccccc2)COc2ccc3ccccc3c2C(=O)N[C@H](C(=O)NCCc2cccc(-n3nccn3)c2)CC(=O)N1C` [Example 41, (4aR,7R,18S,22S)-N-(3-(2H-1,2,3-triazol-2-yl)phenethyl)-7-benzyl-22-isobutyl-21-methyl-5,16,20,23-tetraoxo-1,2,4,4a,5,6,7,8,16,17,18,19,20,21,22,23-hexadecahydronaphtho[1,2-p][1,4]oxazino[3,4-f][1]oxa[4,7,10,14]tetraazacycloheptadecine-18-carboxamide], the EC50 is 280 nM and the maximal response (Emax) amounted to 215%.
Consider `CC(C)C[C@H]1C(=O)N2CCOC[C@@H]2C(=O)N[C@H](Cc2ccccc2)COc2ccc3ccccc3c2C(=O)N[C@H](C(=O)NCCc2ccc3c(c2)OCC3)CC(=O)N1C` [Example 42, (4aR,7R,18S,22S)-7-benzyl-N-(2-(2,3-dihydrobenzofuran-6-yl)ethyl)-22-isobutyl-21-methyl-5,16,20,23-tetraoxo-1,2,4,4a,5,6,7,8,16,17,18,19,20,21,22,23-hexadecahydronaphtho[1,2-p][1,4]oxazino[3,4-f][1]oxa[4,7,10,14]tetraazacycloheptadecine-18-carboxamide], for which the half-maximal effective concentration (EC50) came to 353 nM and the Emax worked out at 419%.
In the same order, the values of `Cc1noc(C)c1CCNC(=O)[C@@H]1CC(=O)N(C)[C@@H](CC(C)C)C(=O)N2CCOC[C@@H]2C(=O)N[C@H](Cc2ccccc2)COc2ccc3ccccc3c2C(=O)N1` [Example 43, (4aR,7R,18S,22S)-7-benzyl-N-(2-(3,5-dimethylisoxazol-4-yl)ethyl)-22-isobutyl-21-methyl-5,16,20,23-tetraoxo-1,2,4,4a,5,6,7,8,16,17,18,19,20,21,22,23-hexadecahydronaphtho[1,2-p][1,4]oxazino[3,4-f][1]oxa[4,7,10,14]tetraazacycloheptadecine-18-carboxamide] are 862 nM and 137%.
In the same order, the values of `CCc1nc(CCNC(=O)[C@@H]2CC(=O)N(C)[C@@H](CC(C)C)C(=O)N3CCOC[C@@H]3C(=O)N[C@H](Cc3ccccc3)COc3ccc4ccccc4c3C(=O)N2)no1` [Example 44, (4aR,7R,18S,22S)-7-benzyl-N-(2-(5-ethyl-1,2,4-oxadiazol-3-yl)ethyl)-22-isobutyl-21-methyl-5,16,20,23-tetraoxo-1,2,4,4a,5,6,7,8,16,17,18,19,20,21,22,23-hexadecahydronaphtho[1,2-p][1,4]oxazino[3,4-f][1]oxa[4,7,10,14]tetraazacycloheptadecine-18-carboxamide] are 571 nM and 247%.
The corresponding values for `CC(C)C[C@H]1C(=O)N2CCOC[C@@H]2C(=O)N[C@H](Cc2ccccc2)COc2ccc3ccccc3c2C(=O)N[C@H](C(=O)NCCc2noc(C3CC3)n2)CC(=O)N1C` [Example 45, (4aR,7R,18S,22S)-7-benzyl-N-(2-(5-cyclopropyl-1,2,4-oxadiazol-3-yl)ethyl)-22-isobutyl-21-methyl-5,16,20,23-tetraoxo-1,2,4,4a,5,6,7,8,16,17,18,19,20,21,22,23-hexadecahydronaphtho[1,2-p][1,4]oxazino[3,4-f][1]oxa[4,7,10,14]tetraazacycloheptadecine-18-carboxamide] are 682 nM and 324%.
For the compound `CC(C)C[C@H]1C(=O)N2CCOC[C@@H]2C(=O)N[C@H](Cc2ccccc2)COc2cnc3ccccc3c2C(=O)N[C@H](C(=O)NCCc2csc(C(C)C)n2)CC(=O)N1C` [Example 46, (9S,13S,19aR,22R)-22-benzyl-13-isobutyl-N-(2-(2-isopropylthiazol-4-yl)ethyl)-12-methyl-7,11,14,20-tetraoxo-7,8,9,10,11,12,13,14,16,17,19,19a,20,21,22,23-hexadecahydro-[1,4]oxazino[3′,4′:6,7][1]oxa[4,7,10,14]tetraazacycloheptadecino[17,16-c]quinoline-9-carboxamide], the EC50 turned out to be 679 nM and the Emax amounted to 137%.
The corresponding values for `CCc1ccc(CCNC(=O)[C@@H]2CC(=O)N(C)[C@@H](CC(C)C)C(=O)N3CCOC[C@@H]3C(=O)N[C@H](Cc3ccccc3)COc3cnc4ccccc4c3C(=O)N2)cc1` [Example 47, (9S,13S,19aR,22R)-22-benzyl-N-(4-ethylphenethyl)-13-isobutyl-12-methyl-7,11,14,20-tetraoxo-7,8,9,10,11,12,13,14,16,17,19,19a,20,21,22,23-hexadecahydro-[1,4]oxazino[3′,4′:6,7][1]oxa[4,7,10,14]tetraazacycloheptadecino[17,16-c]quinoline-9-carboxamide] are 213 nM and 247%.
In the same order, the values of `CC(C)C[C@H]1C(=O)N2CCOC[C@@H]2C(=O)N[C@H](Cc2ccccc2)COc2cnc3ccccc3c2C(=O)N[C@H](C(=O)NCCc2ccc(C(C)(C)C)cc2)CC(=O)N1C` [Example 48, (9S,13S,19aR,22R)-22-benzyl-N-(4-(tert-butyl)phenethyl)-13-isobutyl-12-methyl-7,11,14,20-tetraoxo-7,8,9,10,11,12,13,14,16,17,19,19a,20,21,22,23-hexadecahydro-[1,4]oxazino[3′,4′:6,7][1]oxa[4,7,10,14]tetraazacycloheptadecino[17,16-c]quinoline-9-carboxamide] are 409 nM and 151%.
For `CC(C)C[C@H]1C(=O)N2CCOC[C@@H]2C(=O)N[C@H](Cc2ccccc2)COc2cnc3ccccc3c2C(=O)N[C@H](C(=O)NCCc2ccc(Br)cc2)CC(=O)N1C` [Example 49, (9S,13S,19aR,22R)-22-benzyl-N-(4-bromophenethyl)-13-isobutyl-12-methyl-7,11,14,20-tetraoxo-7,8,9,10,11,12,13,14,16,17,19,19a,20,21,22,23-hexadecahydro-[1,4]oxazino[3′,4′:6,7][1]oxa[4,7,10,14]tetraazacycloheptadecino[17,16-c]quinoline-9-carboxamide], the EC50 turned out to be 347 nM and the maximum response (Emax) was 136%.
The corresponding values for `CC(C)C[C@H]1C(=O)N2CCOC[C@@H]2C(=O)N[C@H](Cc2ccccc2)COc2cnc3ccccc3c2C(=O)N[C@H](C(=O)NCCc2ccccc2F)CC(=O)N1C` [Example 50, (9S,13S,19aR,22R)-22-benzyl-N-(2-fluorophenethyl)-13-isobutyl-12-methyl-7,11,14,20-tetraoxo-7,8,9,10,11,12,13,14,16,17,19,19a,20,21,22,23-hexadecahydro-[1,4]oxazino[3′,4′:6,7][1]oxa[4,7,10,14]tetraazacycloheptadecino[17,16-c]quinoline-9-carboxamide] are 558 nM and 256%.
The corresponding values for `CC(C)C[C@H]1C(=O)N2CCOC[C@@H]2C(=O)N[C@H](Cc2ccccc2)COc2cnc3ccccc3c2C(=O)N[C@H](C(=O)NCCc2cccc(Cl)c2)CC(=O)N1C` [Example 51, (9S,13S,19aR,22R)-22-benzyl-N-(3-chlorophenethyl)-13-isobutyl-12-methyl-7,11,14,20-tetraoxo-7,8,9,10,11,12,13,14,16,17,19,19a,20,21,22,23-hexadecahydro-[1,4]oxazino[3′,4′:6,7][1]oxa[4,7,10,14]tetraazacycloheptadecino[17,16-c]quinoline-9-carboxamide] are 352 nM and 187%.
The corresponding values for `CC(C)C[C@H]1C(=O)N2CCOC[C@@H]2C(=O)N[C@H](Cc2ccccc2)COc2cnc3ccccc3c2C(=O)N[C@H](C(=O)NCCc2cccc(Br)c2)CC(=O)N1C` [Example 52, (9S,13S,19aR,22R)-22-benzyl-N-(3-bromophenethyl)-13-isobutyl-12-methyl-7,11,14,20-tetraoxo-7,8,9,10,11,12,13,14,16,17,19,19a,20,21,22,23-hexadecahydro-[1,4]oxazino[3′,4′:6,7][1]oxa[4,7,10,14]tetraazacycloheptadecino[17,16-c]quinoline-9-carboxamide] are 348 nM and 176%.
In the case of `CC(C)C[C@H]1C(=O)N2CCOC[C@@H]2C(=O)N[C@H](Cc2ccccc2)COc2cnc3ccccc3c2C(=O)N[C@H](C(=O)NCCc2ccc3c(c2)OCCO3)CC(=O)N1C` [Example 53, (9S,13S,19aR,22R)-22-benzyl-N-(2-(2,3-dihydrobenzo[b][1,4]dioxin-6-yl)ethyl)-13-isobutyl-12-methyl-7,11,14,20-tetraoxo-7,8,9,10,11,12,13,14,16,17,19,19a,20,21,22,23-hexadecahydro-[1,4]oxazino[3′,4′:6,7][1]oxa[4,7,10,14]tetraazacycloheptadecino[17,16-c]quinoline-9-carboxamide], the concentration giving a half-maximal response (EC50) is 596 nM and the maximal response (Emax) was 404%.
The corresponding values for `CC(C)C[C@H]1C(=O)N2CCOC[C@@H]2C(=O)N[C@H](Cc2ccccc2)COc2cnc3ccccc3c2C(=O)N[C@H](C(=O)NCCc2ccc3c(c2)OCC3)CC(=O)N1C` [Example 54, (9S,13S,19aR,22R)-22-benzyl-N-(2-(2,3-dihydrobenzofuran-6-yl)ethyl)-13-isobutyl-12-methyl-7,11,14,20-tetraoxo-7,8,9,10,11,12,13,14,16,17,19,19a,20,21,22,23-hexadecahydro-[1,4]oxazino[3′,4′:6,7][1]oxa[4,7,10,14]tetraazacycloheptadecino[17,16-c]quinoline-9-carboxamide] are 558 nM and 373%.
